Consider 18 molecules from US20230322767A1, “ARYL SUBSTITUTED PYRROLO-PYRIDINONES AND THERAPEUTIC USES THEREOF” (Bayer Aktiengesellschaft, priority 2020, published 2023).

The target of one assay is CSNK1D (Homo sapiens (Human), UniProt P48730). Kind of assay: CSNK1D Assay (ADP-Glo, 1 μM ATP). In kind it is biochemical. Particulars: median, read-out: CSNK1D IC50 [mol/l] (median). On the procedure:
CSNK1D-inhibitory activity of compounds of the present invention in presence of 1 μM adenosine-tri-phosphate (ATP) was quantified employing the CSNK1 D assay as described in the following paragraphs. In essence, the enzyme activity is measured by quantification of the adenosine-di-phosphate (ADP), which is generated as a co-product of the enzyme reaction, via the “ADP-Glo™ Kinase Assay” kit from the company Promega. This detection system works as follows: In a first step the ATP not consumed in the kinase reaction is quantitatively converted to cAMP employing an adenylate cyclase (“ADP-Glo-reagent”), then the adenylate cyclase is stopped and the ADP generated in the kinase reaction converted to ATP which generates in a luciferase-based reaction a glow-luminescence signal (“Kinase Detection Reagent”).
As substrate for the kinase reaction the biotinylated peptide Btn-Ahx-[…] (C-terminus in amide form) was used which can be purchased e.g. from the company Biosyntan (Berlin-Buch, Germany).
For the assay 50 nl of a 100 fold concentrated solution of the test compound in DMSO was pipetted into a white 1536-well microtiter plate (Greiner Bio-One, Frickenhausen, Germany), 2 μL of a solution of CSNK1D in aqueous assay buffer [50 mM HEPES pH 7.5, 10% (v/v) glycerol, 10 mM MgCl2, 50 mM NaCl, 1 mM dithiothreitol, 0.01% (w/v) bovine serum albumin, 0.01% (v/v) Triton X-100] were added and the mixture was incubated for 15 min at 22° C. to allow pre-binding of the test compounds to the enzyme before the start of the kinase reaction. […] The concentration of CSNK1D was adjusted depending of the activity of the enzyme lot and was chosen appropriate to have the assay in the linear range, a typical concentration is about 0.5 ng/μL. The reaction was stopped by the addition of 2.5 μL of “ADP-Glo-reagent” (1:1.5 fold diluted with water) and the resulting mixture was incubated at 22° C. for 1 h to convert the ATP not consumed in the kinase reaction completely […]. Subsequently 2.5 μL of the “kinase detection reagent” (1.2 fold more concentrated than recommended by the producer) were added, the resulting mixture was incubated at 22° C. for 1 h and then the luminescence measured with a suitable measurement instrument (e.g. Viewlux™ from Perkin-Elmer). The amount of emitted light was taken as a measure for the amount of ADP generated and thereby for the activity of the CSNK1D.

The target of the next assay is CSNK1A1 (Homo sapiens (Human), UniProt P48729). Kind of assay: CSNK1A1 Assay 2 (ADP-Glo, 1 μM ATP). In kind it is biochemical. Particulars: median, read-out: CSNK1A1 Assay 2 IC50 [mol/l] (median). The procedure, abridged: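 Enzyme (~0.0375 ng/μL) preincubated 15 min at 22° C with compound in HEPES pH 7.5 buffer, then reacted with 1 μM ATP and biotin-Ahx-KRRRAL-pS-VASLPGL peptide. ADP product measured by ADP-Glo luminescence after 1 h ATP depletion and 1 h detection at 22° C.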
Sequence of CSNK1A1 (P48729 whole entry): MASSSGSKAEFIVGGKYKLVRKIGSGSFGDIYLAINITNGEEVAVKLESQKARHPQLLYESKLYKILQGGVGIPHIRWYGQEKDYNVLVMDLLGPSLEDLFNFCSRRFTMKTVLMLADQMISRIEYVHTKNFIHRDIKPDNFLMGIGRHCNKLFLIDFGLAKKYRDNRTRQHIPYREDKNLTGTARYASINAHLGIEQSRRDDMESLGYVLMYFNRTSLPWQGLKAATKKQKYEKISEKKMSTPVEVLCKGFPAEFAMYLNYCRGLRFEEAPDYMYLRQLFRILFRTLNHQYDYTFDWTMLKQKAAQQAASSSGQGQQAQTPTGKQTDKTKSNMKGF

Sequence of CSNK1D (P48730 whole entry): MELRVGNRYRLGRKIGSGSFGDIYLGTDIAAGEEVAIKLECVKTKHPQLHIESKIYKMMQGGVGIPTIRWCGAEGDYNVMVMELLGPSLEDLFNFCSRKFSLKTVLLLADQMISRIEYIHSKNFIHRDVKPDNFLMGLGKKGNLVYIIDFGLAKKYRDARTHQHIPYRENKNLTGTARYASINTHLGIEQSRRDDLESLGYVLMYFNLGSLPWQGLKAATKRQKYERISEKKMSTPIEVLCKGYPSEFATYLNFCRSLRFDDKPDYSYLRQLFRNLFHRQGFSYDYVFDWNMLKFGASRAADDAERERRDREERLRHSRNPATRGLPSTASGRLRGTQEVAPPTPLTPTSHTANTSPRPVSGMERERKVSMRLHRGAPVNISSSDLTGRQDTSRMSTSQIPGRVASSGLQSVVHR

With `Cn1cc(CC(F)(F)F)c2[nH]c(-c3ccnc(NC(=O)C(CC(F)F)c4ccc(F)cc4)c3)c(-c3ccc(F)cc3)c2c1=O` (single isomer, unassigned) [Example 28, 4,4-difluoro-2-(4-fluorophenyl)-N-{4-[3-(4-fluorophenyl)-5-methyl-4-oxo-7-(2,2,2-trifluoroethyl)-4,5-dihydro-1H-pyrrolo[3,2-c]pyridin-2-yl]pyridin-2-yl}butanamide], the IC50 is 5 nM at CSNK1D and 6.1 nM on CSNK1A1.

In the case of `Cn1cc(CC(F)(F)F)c2[nH]c(-c3ccnc(NC(=O)C(CC(F)F)c4ccc(F)cc4)c3)c(-c3ccc(F)cc3)c2c1=O` (single isomer, unassigned) [Example 27, 4,4-difluoro-2-(4-fluorophenyl)-N-{4-[3-(4-fluorophenyl)-5-methyl-4-oxo-7-(2,2,2-trifluoroethyl)-4,5-dihydro-1H-pyrrolo[3,2-c]pyridin-2-yl]pyridin-2-yl}butanamide], the IC50 came out at 5.8 nM at CSNK1D and 12 nM at CSNK1A1.

On to `CC1(C)CNC(=O)c2c1[nH]c(-c1ccnc(NC(=O)C(CC(F)F)c3ccc(F)cc3)c1)c2-c1ccccc1` (racemic) [Example 43, N-[4-(7,7-dimethyl-4-oxo-3-phenyl-4,5,6,7-tetrahydro-1H-pyrrolo[3,2-c]pyridin-2-yl)pyridin-2-yl]-4,4-difluoro-2-(4-fluorophenyl)butanamide], for which the IC50 at CSNK1D worked out at 2.7 nM; at CSNK1A1, 2.6 nM.

Consider `Cn1cc(CC(F)(F)F)c2[nH]c(-c3ccnc(NC(=O)C(CC(F)F)c4ccc(F)cc4)c3)c(-c3ccccc3)c2c1=O` (single isomer, unassigned; (+)) [Example 20, (+)-4,4-difluoro-2-(4-fluorophenyl)-N-{4-[5-methyl-4-oxo-3-phenyl-7-(2,2,2-trifluoroethyl)-4,5-dihydro-1H-pyrrolo[3,2-c]pyridin-2-yl]pyridin-2-yl}butanamide], for which the results for the IC50 at CSNK1D and on CSNK1A1 were 12 nM and 14 nM, respectively.

Regarding `CC(C(=O)Nc1cc(-c2[nH]c3c(CC(F)(F)F)cn(C)c(=O)c3c2-c2ccc(F)cc2)ccn1)c1ccc(F)cc1` (single isomer, unassigned; (-)) [Example 23, (−)-2-(4-fluorophenyl)-N-{4-[3-(4-fluorophenyl)-5-methyl-4-oxo-7-(2,2,2-trifluoroethyl)-4,5-dihydro-1H-pyrrolo[3,2-c]pyridin-2-yl]pyridin-2-yl}propanamide], the figures for the IC50 on CSNK1D and on CSNK1A1 were 37 nM and 85 nM, respectively.

With `Cn1cc(CC(F)(F)F)c2[nH]c(-c3ccnc(NC(=O)C(CC(F)F)c4ccc(F)cc4)c3)c(-c3ccc(F)cc3)c2c1=O` (racemic) [Example 26, 4,4-difluoro-2-(4-fluorophenyl)-N-{4-[3-(4-fluorophenyl)-5-methyl-4-oxo-7-(2,2,2-trifluoroethyl)-4,5-dihydro-1H-pyrrolo[3,2-c]pyridin-2-yl]pyridin-2-yl}butanamide], the IC50 at CSNK1D stood at 7.1 nM; at CSNK1A1, 11 nM.

Regarding `CC(C(=O)Nc1cc(-c2[nH]c3c(c2-c2ccccc2)C(=O)N(C)C2(CCC2)C3)ccn1)c1ccc(F)cc1` (racemic) [Example 52, 2-(4-fluorophenyl)-N-[4-(5′-methyl-4′-oxo-3′-phenyl-1′,4′,5′,7′-tetrahydrospiro[cyclobutane-1,6′-pyrrolo[3,2-c]pyridin]-2′-yl)pyridin-2-yl]propanamide], the IC50 is 3.8 nM on CSNK1D and 3.4 nM at CSNK1A1.

For the molecule `CC(C(=O)Nc1cc(-c2[nH]c3c(CC(F)(F)F)cn(C)c(=O)c3c2-c2ccccc2)ccn1)c1ccc(F)cc1` (single isomer, unassigned; (-)) [Example 16, (−)-2-(4-fluorophenyl)-N-{4-[5-methyl-4-oxo-3-phenyl-7-(2,2,2-trifluoroethyl)-4,5-dihydro-1H-pyrrolo[3,2-c]pyridin-2-yl]pyridin-2-yl}propanamide], the IC50 is 4.4 nM on CSNK1D and 7.7 nM on CSNK1A1.

Take `Cn1cc(CC(F)(F)F)c2[nH]c(-c3ccnc(NC(=O)C(CC(F)F)c4ccc(F)cc4)c3)c(-c3ccccc3)c2c1=O` (racemic) [Example 18, 4,4-difluoro-2-(4-fluorophenyl)-N-{4-[5-methyl-4-oxo-3-phenyl-7-(2,2,2-trifluoroethyl)-4,5-dihydro-1H-pyrrolo[3,2-c]pyridin-2-yl]pyridin-2-yl}butanamide]: the IC50 on CSNK1D worked out at 3.1 nM; at CSNK1A1, 5.9 nM.

As to `CN1CCc2[nH]c(-c3ccnc(NC(=O)C(CC(F)F)c4ccc(F)cc4)c3)c(-c3ccccc3)c2C1=O` (racemic) [Example 2, 4,4-difluoro-2-(4-fluorophenyl)-N-[4-(5-methyl-4-oxo-3-phenyl-4,5,6,7-tetrahydro-1H-pyrrolo[3,2-c]pyridin-2-yl)pyridin-2-yl]butanamide], the IC50 on CSNK1D is 3.3 nM; at CSNK1A1 it was 1.7 nM.

On to `Cn1cc(CC2CC2)c2[nH]c(-c3ccnc(NC(=O)Cc4ccc(F)cc4)c3)c(-c3ccccc3)c2c1=O` [Example 56, N-{4-[7-(cyclopropylmethyl)-5-methyl-4-oxo-3-phenyl-4,5-dihydro-1H-pyrrolo[3,2-c]pyridin-2-yl]pyridin-2-yl}-2-(4-fluorophenyl)acetamide], for which the IC50 at CSNK1D came to 4.8 nM; at CSNK1A1, 4.4 nM.

`CC1CN(C)C(=O)c2c1[nH]c(-c1ccnc(NC(=O)C(C)c3ccc(F)cc3)c1)c2-c1ccccc1` (stereo not drawn) [Example 37, N-{4-[5,7-dimethyl-4-oxo-3-phenyl-4,5,6,7-tetrahydro-1H-pyrrolo[3,2-c]pyridin-2-yl]pyridin-2-yl}-2-(4-fluorophenyl)propanamide]: the IC50 was found to be 4.1 nM on CSNK1D and 3.1 nM on CSNK1A1.

For the molecule `CC(C(=O)Nc1cc(-c2[nH]c3c(CC(F)(F)F)cn(C)c(=O)c3c2-c2ccc(F)cc2)ccn1)c1ccc(F)cc1` (racemic) [Example 22, 2-(4-fluorophenyl)-N-{4-[3-(4-fluorophenyl)-5-methyl-4-oxo-7-(2,2,2-trifluoroethyl)-4,5-dihydro-1H-pyrrolo[3,2-c]pyridin-2-yl]pyridin-2-yl}propanamide], the results for the IC50 on CSNK1D and on CSNK1A1 were 3.2 nM and 6.2 nM, respectively.

For `CC(C(=O)Nc1cc(-c2[nH]c3c(c2-c2ccc(F)cc2)C(=O)N(C)CC3CC(F)(F)F)ccn1)c1ccc(F)cc1` (stereo not drawn) [Example 21, 2-(4-fluorophenyl)-N-{4-[3-(4-fluorophenyl)-5-methyl-4-oxo-7-(2,2,2-trifluoroethyl)-4,5,6,7-tetrahydro-1H-pyrrolo[3,2-c]pyridin-2-yl]pyridin-2-yl}propanamide], the IC50 at CSNK1D turned out to be 6.6 nM; on CSNK1A1, 8.6 nM.

On to `Cc1cn(C)c(=O)c2c(-c3ccc(F)cc3)c(-c3ccnc(NC(=O)C(CC(F)F)c4ccc(F)cc4)c3)[nH]c12` (racemic) [Example 34, 4,4-difluoro-2-(4-fluorophenyl)-N-{4-[3-(4-fluorophenyl)-5,7-dimethyl-4-oxo-4,5-dihydro-1H-pyrrolo[3,2-c]pyridin-2-yl]pyridin-2-yl}butanamide], for which the IC50 at CSNK1D was found to be 5.3 nM; on CSNK1A1, 5.8 nM.

As to `CN1CC(CC(F)(F)F)c2[nH]c(-c3ccnc(NC(=O)C(CC(F)F)c4ccc(F)cc4)c3)c(-c3ccccc3)c2C1=O` (stereo not drawn) [Example 17, 4,4-difluoro-2-(4-fluorophenyl)-N-{4-[5-methyl-4-oxo-3-phenyl-7-(2,2,2-trifluoroethyl)-4,5,6,7-tetrahydro-1H-pyrrolo[3,2-c]pyridin-2-yl]pyridin-2-yl}butanamide], the figures for the IC50 on CSNK1D and on CSNK1A1 were 4.3 nM and 4.7 nM, respectively.

For the molecule `CN1C(=O)c2c([nH]c(-c3ccnc(NC(=O)C(CC(F)F)c4ccc(F)cc4)c3)c2-c2ccccc2)CC12CCC2` (racemic) [Example 49, 4,4-difluoro-2-(4-fluorophenyl)-N-[4-(5′-methyl-4′-oxo-3′-phenyl-1′,4′,5′,7′-tetrahydrospiro[cyclobutane-1,6′-pyrrolo[3,2-c]pyridin]-2′-yl)pyridin-2-yl]butanamide], the IC50 came to 4.5 nM on CSNK1D and 4.6 nM at CSNK1A1.

Consider `CC(C(=O)Nc1cc(-c2[nH]c3c(CC4CC4)cn(C)c(=O)c3c2-c2ccccc2)ccn1)c1ccc(F)cc1` (racemic) [Example 58, N-{4-[7-(cyclopropylmethyl)-5-methyl-4-oxo-3-phenyl-4,5-dihydro-1H-pyrrolo[3,2-c]pyridin-2-yl]pyridin-2-yl}-2-(4-fluorophenyl)propanamide], for which the figures for the IC50 on CSNK1D and at CSNK1A1 were 4 nM and 5.2 nM, respectively.
